Measured values as given in US11166942B2 (PRAXIS BIOTECH LLC, priority 2018, dated 2021).

Legend:
[1] = system: CT26 tumor-bearing Balb/c mice, gastrocnemius; experiment: Cachexia-induced muscle atrophy; format: in vivo, mouse; settings: 10 mg/kg daily oral gavage for 12 days
Procedure: Wild type six-weeks-old male Balb/c mice obtained from the vivarium Fundación Ciencia & Vida Chile (Santiago, Chile) were used. Mice were housed in independent plastic cages in a room maintained at 25° C. with a 12-h:12-h light:dark cycle.
1×10^6 CT26 colon carcinoma cell line (ATCC #CRL-2638, ATCC Manassas, Va.) were injected subcutaneously in the right lower flank of each animal for induction of cachexia-induced muscle atrophy as described (Nat Commun. 2012 Jun. 12; 3:896). Non-injected animals were used as controls. At day 7 post tumor-cell injection, animals were randomized into two groups and treated with 10 mg/kg of test compound formulated in 50% Polyethylene glycol (PEG-400) in distilled water, or with vehicle (50% PEG-400 in distilled water) by daily oral gavage for 12 days.
After 12 treatments, animals were sacrificed and gastrocnemius were removed from both hindlimbs. Muscles derived from non-tumor-bearing mice were used as control.
Upon collection, muscles were immediately frozen in liquid nitrogen and then stored at −80° C. The frozen muscles were then homogenized with a T 10 basic ULTRA-TURRAX (IKa) in ice-cold buffer lysis (Cell Signaling 9803) and protease and phosphatase inhibitors (Roche). Lysates were sonicated for 3 min and centrifuged at 13,000 rpm for 20 minutes at 4° C. Protein concentration in supernatants was determined using BCA Protein Assay Kit (Pierce). Equal amount of protein was loaded on SDS-PAGE gels. […]
ATF4 (Abcam), Atrogin-1 (ECM Biosciences), MuRF-1 (Santa Cruz Biotechnology) and β-actin (Sigma-Aldrich) antibodies were used as primary antibodies. […] Quantification of protein bands was done by densitometry using ImageJ software.
Expression of ATF4 and the muscle atrophy markers, Atrogin-1 and MuRF-1, of gastrocnemius derived from control and CT26 tumor-bearing mice treated with vehicle or compound 58 are shown in FIG. 10A. […] The levels were normalized to β-actin expression and percentage was calculated as the percent relative to the expression of non-tumor-bearing mice (Control) which corresponds to 100%. […]

ATF4 = ATF4 expression inhibition assay (ATF4 5'UTR luciferase reporter, Tg-stressed HEK293T cells); format: cell-based, human; settings: Homo sapiens, HEK-293T, 3 h, 100 nM thapsigargin, 3 hours, HEK293T ATF4 luciferase reporter
Procedure, shortened: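 HEK293T stably expressing luciferase fused downstream of human full-length ATF4 5′UTR, stressed with 100 nM thapsigargin plus compound (100 nM or 1 μM; IC50 series 0.1 nM to 1 μM) for 3 h at 37° C. Luminescence normalized to Tg alone (0%) and untreated cells (100% inhibition).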

In the case of `O=C(NN1CCN(C[C@@H](O)COc2ccc(Cl)c(F)c2)CC1)c1ccc2cc(Cl)ccc2n1` [Compound 58, (R)-6-chloro-N-(4-(3-(4-chloro-3-fluorophenoxy)-2-hydroxypropyl)piperazin-1-yl)quinoline-2-carboxamide], the “ATF4 expression in gastrocnemius” value ([1]; vs vehicle (FIG. 10B)) is reported as “reduction”, the “Atrogin-1 expression in gastrocnemius” value ([1]; vs vehicle (FIG. 10C)) is reported as “reduction” and the “MuRF-1 expression in gastrocnemius” value ([1]; vs vehicle (FIG. 10D)) is reported as “reduction”. For the same compound, the inhibition at 0.1 µM (ATF4; 100 nM test compound, read-out: % ATF4 inhibition at 100 nM) was 86.5%, the IC50 (ATF4; read-out: ATF4 inhbition IC50) was 5.7 nM and the inhibition at 1 µM (ATF4; 1 μM test compound, read-out: % ATF4 inhibition at 1 μM) was 97.6%.
